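Tested at 5 concentrations; 48 h exposure; 96-well plates; endpoints linearly interpolated, else capped at highest concentration. GI50 marks 50% less growth.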 The source made the active and inactive calls. No stated cut-off is given here; in the data, active = GI50 up to about 1.1 µM and inactive = higher.
Columns and labels:
Test in all cases: growth of human tumour cells (NCI), 48 h
SNB-75 = test system: SNB-75
SF-539 = test system: SF-539
UACC-62 = test system: UACC-62
SF-295 = test system: SF-295
MDA-N = test system: MDA-N
RPMI-8226 = test system: RPMI-8226
HT-29 = test system: HT-29
HOP-62 = test system: HOP-62
MCF7 = test system: MCF7
SR = test system: SR
NCI-H460 = test system: NCI-H460
IGROV-1 = test system: IGROV-1
M14 = test system: M14
SK-MEL-2 = test system: SK-MEL-2
ACHN = test system: ACHN
OVCAR-8 = test system: OVCAR-8
HCC 2998 = test system: HCC 2998
SN12C = test system: SN12C
DU-145 = test system: DU-145

Measured: GI50

COC(=O)/C=C(\S/C=C(/c1ccccc1)N1CCn2c(C(=O)c3ccccc3)c(C(=O)OC)c(C(=O)OC)c21)C(=O)OC
inactive: SNB-75 > 10 µM | SF-539 2.29 µM | UACC-62 > 10 µM | SF-295 > 10 µM | MDA-N > 10 µM | RPMI-8226 2.43 µM | HT-29 2.77 µM | HOP-62 2.69 µM | MCF7 1.42 µM | SR 2.61 µM | NCI-H460 > 10 µM | IGROV-1 > 10 µM | M14 2.4 µM | SK-MEL-2 > 10 µM | ACHN 3.34 µM | OVCAR-8 1.73 µM | HCC 2998 > 10 µM | SN12C 5.05 µM

COC(=O)C1CCCN1C(=O)C(Cc1cn(S(=O)(=O)c2ccc(C)cc2)cn1)NC(=O)OC(C)(C)C (stereo unspecified)
inactive: SNB-75 > 100 µM | UACC-62 > 100 µM | MDA-N > 100 µM | RPMI-8226 > 100 µM | HT-29 > 100 µM | HOP-62 > 100 µM | MCF7 > 100 µM | SR > 100 µM | NCI-H460 > 100 µM | IGROV-1 > 100 µM | M14 > 100 µM | SK-MEL-2 > 100 µM | ACHN > 100 µM | OVCAR-8 > 100 µM | HCC 2998 > 100 µM | SN12C > 100 µM

FC(F)(F)C12C34C=CC5(CCC6(C=CC1(CC3)O6)C52C(F)(F)F)O4 (stereo unspecified)
inactive: SF-539 > 100 µM | SF-295 > 100 µM | HT-29 > 100 µM | HOP-62 > 100 µM | SR > 100 µM | NCI-H460 > 100 µM | IGROV-1 > 100 µM | SK-MEL-2 > 100 µM | ACHN > 100 µM | OVCAR-8 > 100 µM | HCC 2998 > 100 µM | SN12C > 100 µM

CC(C)(C)OC(=O)NCC(C#N)CNC(=O)OC(C)(C)C
inactive: SF-539 > 100 µM | UACC-62 > 100 µM | SF-295 > 100 µM | RPMI-8226 > 100 µM | HOP-62 > 100 µM | MCF7 > 100 µM | SR > 100 µM | NCI-H460 > 100 µM | IGROV-1 > 100 µM | M14 > 100 µM | ACHN > 100 µM | OVCAR-8 > 100 µM | DU-145 > 100 µM | HCC 2998 > 100 µM | SN12C > 100 µM

Cc1n[n+](CC(=O)c2ccccc2)c2sc(N)nn12
inactive: SNB-75 > 100 µM | UACC-62 > 100 µM | SF-295 > 100 µM | MDA-N > 100 µM | RPMI-8226 > 100 µM | HT-29 > 100 µM | HOP-62 > 100 µM | MCF7 > 100 µM | NCI-H460 > 100 µM | IGROV-1 > 100 µM | M14 > 100 µM | SK-MEL-2 > 100 µM | ACHN > 100 µM | OVCAR-8 > 100 µM | DU-145 > 100 µM | SN12C > 100 µM

Oc1ccc2ccccc2c1CCc1c(O)ccc2ccccc12
inactive: SNB-75 3.66 µM | SF-539 16.2 µM | UACC-62 9.29 µM | SF-295 11.7 µM | MDA-N 13.5 µM | RPMI-8226 7.01 µM | HT-29 4.41 µM | HOP-62 13.5 µM | MCF7 12.7 µM | SR 12 µM | NCI-H460 10.4 µM | M14 15.5 µM | ACHN 16.4 µM | OVCAR-8 14.5 µM | HCC 2998 3.81 µM | SN12C 11.2 µM

CC(=O)N1C(NN(C)C)CCN1c1ccccc1 (stereo unspecified)
inactive: SNB-75 > 10 µM | UACC-62 > 10 µM | SF-295 > 10 µM | RPMI-8226 > 10 µM | HT-29 > 10 µM | HOP-62 > 10 µM | MCF7 > 10 µM | SR > 10 µM | IGROV-1 > 10 µM | M14 > 10 µM | OVCAR-8 > 10 µM | DU-145 > 10 µM | HCC 2998 > 10 µM | SN12C > 10 µM

COCn1cnc2c(=O)n(-c3ccc(OC)cc3)c(=S)n(-c3ccc(OC)cc3)c21
inactive: SNB-75 > 100 µM | SF-539 > 100 µM | UACC-62 > 100 µM | SF-295 > 100 µM | RPMI-8226 > 100 µM | HT-29 > 100 µM | HOP-62 > 100 µM | MCF7 > 100 µM | SR > 100 µM | NCI-H460 > 100 µM | IGROV-1 > 100 µM | M14 > 100 µM | SK-MEL-2 > 100 µM | ACHN > 100 µM | OVCAR-8 > 100 µM | DU-145 > 100 µM | HCC 2998 > 100 µM | SN12C > 100 µM

Cn1c(O)c(C(=O)NC2CCCCC2)c(=O)n(C)c1=S
inactive: SF-539 9.16 µM | UACC-62 4.57 µM | SF-295 3.23 µM | RPMI-8226 4.32 µM | HOP-62 4.85 µM | SR 17.9 µM | NCI-H460 6.1 µM | IGROV-1 4.89 µM | M14 8.02 µM | SK-MEL-2 5.11 µM | ACHN 3.57 µM | OVCAR-8 4.33 µM | SN12C 6.12 µM

COC(=O)/C=C(\C)CC(O)/C=C(\C)CCC=C(C)C (stereo unspecified)
inactive: SNB-75 9.44 µM | SF-539 > 100 µM | UACC-62 40.7 µM | SF-295 38.1 µM | MDA-N 35.5 µM | HT-29 24.1 µM | HOP-62 > 100 µM | MCF7 31.4 µM | SR 23 µM | NCI-H460 49.7 µM | IGROV-1 > 100 µM | M14 38.5 µM | SK-MEL-2 19.1 µM | ACHN 64.7 µM | OVCAR-8 22.3 µM | HCC 2998 27.9 µM | SN12C > 100 µM

CN1CC(c2ccccc2)=CC2=C1C=CC(=N)/C2=N\N
inactive: SNB-75 20.9 µM | SF-539 > 100 µM | UACC-62 > 100 µM | SF-295 75.3 µM | MDA-N > 100 µM | RPMI-8226 > 100 µM | HT-29 > 100 µM | HOP-62 71.8 µM | MCF7 > 100 µM | SR > 100 µM | NCI-H460 > 100 µM | IGROV-1 > 100 µM | M14 > 100 µM | SK-MEL-2 48.2 µM | ACHN > 100 µM | OVCAR-8 > 100 µM | HCC 2998 > 100 µM | SN12C > 100 µM

Cc1cccc(NC2=NCCO2)c1Cl
inactive: SNB-75 > 100 µM | SF-539 > 100 µM | UACC-62 > 100 µM | SF-295 > 100 µM | RPMI-8226 > 100 µM | HT-29 > 100 µM | HOP-62 > 100 µM | MCF7 > 100 µM | SR > 100 µM | NCI-H460 > 100 µM | IGROV-1 > 100 µM | M14 > 100 µM | ACHN > 100 µM | OVCAR-8 > 100 µM | DU-145 > 100 µM | HCC 2998 > 100 µM | SN12C > 100 µM

COc1ccc(/C=C2\CN(C)Cc3c2nc(O)c(C#N)c3-c2ccc(OC)cc2)cc1
inactive: UACC-62 > 100 µM | SF-295 38.3 µM | MDA-N 47.2 µM | RPMI-8226 21.7 µM | HT-29 38.5 µM | HOP-62 51.2 µM | MCF7 16.5 µM | NCI-H460 29.6 µM | IGROV-1 50 µM | M14 39.7 µM | SK-MEL-2 94 µM | ACHN > 100 µM | OVCAR-8 31.3 µM | DU-145 97.5 µM | SN12C 42.5 µM

CC1=C(C(=O)c2ccccc2)C23C(=O)N(c4ccccc4)C(=O)C2=C(O)C=CC3(O)N1 (stereo unspecified)
inactive: SNB-75 24.2 µM | SF-539 47.9 µM | UACC-62 20.1 µM | SF-295 43.4 µM | RPMI-8226 29.8 µM | HT-29 13.6 µM | HOP-62 32.5 µM | MCF7 38.3 µM | SR 15.4 µM | NCI-H460 40.8 µM | IGROV-1 25.6 µM | M14 40.2 µM | SK-MEL-2 21 µM | ACHN 15.9 µM | OVCAR-8 34 µM | DU-145 44.1 µM | HCC 2998 26.7 µM | SN12C 30.3 µM

Cc1ccc2c(=O)c(-c3nnsn3)c[nH]c2n1
inactive: UACC-62 > 100 µM | SF-295 > 100 µM | MDA-N > 100 µM | RPMI-8226 > 100 µM | HT-29 > 100 µM | HOP-62 > 100 µM | MCF7 > 100 µM | NCI-H460 > 100 µM | IGROV-1 > 100 µM | M14 > 100 µM | SK-MEL-2 > 100 µM | ACHN > 100 µM | OVCAR-8 > 100 µM | DU-145 > 100 µM | SN12C > 100 µM

Cc1ccc(S(=O)(=O)NC(C)C(=O)O)cc1 (stereo unspecified)
inactive: SNB-75 > 100 µM | SF-539 > 100 µM | UACC-62 > 100 µM | SF-295 > 100 µM | RPMI-8226 > 100 µM | HT-29 > 100 µM | NCI-H460 > 100 µM | IGROV-1 > 100 µM | M14 > 100 µM | SK-MEL-2 > 100 µM | ACHN > 100 µM | OVCAR-8 > 100 µM | HCC 2998 > 100 µM | SN12C > 100 µM

N=c1nc(N)nc(N)n1-c1ccc(S(N)(=O)=O)cc1
inactive: UACC-62 > 100 µM | SF-295 > 100 µM | MDA-N > 100 µM | HT-29 > 100 µM | HOP-62 > 100 µM | SR > 100 µM | NCI-H460 > 100 µM | IGROV-1 > 100 µM | M14 > 100 µM | SK-MEL-2 > 100 µM | ACHN > 100 µM | OVCAR-8 > 100 µM | DU-145 > 100 µM | SN12C > 100 µM

From ChEMBL document CHEMBL1201862, “PubChem BioAssay data set” (2004)
